Experimental data from PubChem BioAssay AID248 (DTP/NCI, 2004).
“And” between values parts separate entries of the source, which are not always exact repeats. Equal entries are not always repeated. Inconclusive results and toxic doses are left out.

Test system: L1210 leukemia ip in BDF1 mice, survival T/C
Experiment: NCI In Vivo Anticancer Drug Screen. Data for tumor model L1210 Leukemia (intraperitoneal) in B6D2F1 (BDF1) mice
Details: higher = longer survival
Summary of the method: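 Survival endpoint. Drug-treated group vs vehicle group, expressed as T divided by C. Tumor passaged by transplantation.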

[1] = endpoint: mean survival time, dose: 100.0 mg/kg/injection, schedule: Q04DX002 (ip), vehicle: Klucel (hydroxypropylcellulose) (HPC)
[2] = endpoint: mean survival time, dose: 100.0 mg/kg/injection, schedule: Q04DX003 (ip), vehicle: Klucel (hydroxypropylcellulose) (HPC)
[3] = endpoint: mean survival time, dose: 200.0 mg/kg/injection, schedule: Q04DX002 (ip), vehicle: Klucel (hydroxypropylcellulose) (HPC)
[4] = endpoint: mean survival time, dose: 200.0 mg/kg/injection, schedule: Q04DX003 (ip), vehicle: Klucel (hydroxypropylcellulose) (HPC)
[5] = endpoint: mean survival time, dose: 400.0 mg/kg/injection, schedule: Q04DX002 (ip), vehicle: Klucel (hydroxypropylcellulose) (HPC)
[6] = endpoint: mean survival time, dose: 400.0 mg/kg/injection, schedule: Q04DX003 (ip), vehicle: Klucel (hydroxypropylcellulose) (HPC)
[7] = endpoint: mean survival time, dose: 100.0 mg/kg/injection, schedule: Q01DX009 (ip), vehicle: Klucel (hydroxypropylcellulose) (HPC)
[8] = endpoint: mean survival time, dose: 200.0 mg/kg/injection, schedule: Q01DX009 (ip), vehicle: Klucel (hydroxypropylcellulose) (HPC)
[9] = endpoint: mean survival time, dose: 12.5 mg/kg/injection, schedule: Q01DX009 (ip), vehicle: saline
[10] = endpoint: mean survival time, dose: 25.0 mg/kg/injection, schedule: Q01DX009 (ip), vehicle: saline
[11] = endpoint: mean survival time, dose: 25.0 mg/kg/injection, schedule: Q04DX003 (ip), vehicle: saline
[12] = endpoint: mean survival time, dose: 50.0 mg/kg/injection, schedule: Q01DX009 (ip), vehicle: saline
[13] = endpoint: mean survival time, dose: 50.0 mg/kg/injection, schedule: Q04DX003 (ip), vehicle: saline
[14] = endpoint: mean survival time, dose: 100.0 mg/kg/injection, schedule: Q01DX009 (ip), vehicle: saline
[15] = endpoint: mean survival time, dose: 200.0 mg/kg/injection, schedule: Q01DX009 (ip), vehicle: saline
[16] = endpoint: mean survival time, dose: 100.0 mg/kg/injection, schedule: Q04DX003 (ip), vehicle: saline
[17] = endpoint: mean survival time, dose: 200.0 mg/kg/injection, schedule: Q04DX003 (ip), vehicle: saline
[18] = endpoint: mean survival time, dose: 400.0 mg/kg/injection, schedule: Q01DX009 (ip), vehicle: saline
[19] = endpoint: mean survival time, dose: 400.0 mg/kg/injection, schedule: Q04DX003 (ip), vehicle: saline
[20] = endpoint: mean survival time, dose: 100.0 mg/kg/injection, schedule: Q01DX001 (ip), vehicle: carboxymethylcellulose (CMC)
[21] = endpoint: mean survival time, dose: 200.0 mg/kg/injection, schedule: Q01DX001 (ip), vehicle: carboxymethylcellulose (CMC)
[22] = endpoint: mean survival time, dose: 400.0 mg/kg/injection, schedule: Q01DX001 (ip), vehicle: carboxymethylcellulose (CMC)
[23] = endpoint: mean survival time, dose: 25.0 mg/kg/injection, schedule: Q01DX001 (ip), vehicle: saline
[24] = endpoint: mean survival time, dose: 50.0 mg/kg/injection, schedule: Q01DX001 (ip), vehicle: saline
[25] = endpoint: mean survival time, dose: 100.0 mg/kg/injection, schedule: Q04DX002 (ip), vehicle: gum acacia
[26] = endpoint: mean survival time, dose: 200.0 mg/kg/injection, schedule: Q04DX002 (ip), vehicle: gum acacia
[27] = endpoint: mean survival time, dose: 400.0 mg/kg/injection, schedule: Q04DX002 (ip), vehicle: gum acacia
[28] = endpoint: mean survival time, dose: 100.0 mg/kg/injection, schedule: Q01DX001 (ip), vehicle: saline
[29] = endpoint: mean survival time, dose: 200.0 mg/kg/injection, schedule: Q01DX001 (ip), vehicle: saline
[30] = endpoint: mean survival time, dose: 400.0 mg/kg/injection, schedule: Q01DX001 (ip), vehicle: saline

`O=C1OC(=O)C2C3CCCCC3=C3CCCCC3C12` (stereo not drawn) was tested, and the T/C [1] was 96 % of control, the T/C [2] was 101 % of control and the T/C [3] was 101 % of control. For the same molecule, the T/C [4] was 105 % of control, the T/C [5] was 93 % of control and the T/C [6] was 103 % of control.

In the case of `CNc1ccccc1Cc1ccccc1`, the T/C [7] is reported as 96 % of control, the T/C [2] is reported as 103 % of control and the T/C [8] is reported as 99 % of control. The T/C [4] was 93 % of control and the T/C [6] was 98 % of control.

For `CS(=O)(=O)c1ncc2cnccn12`, the T/C (endpoint: mean survival time, dose: 100.0 mg/kg/injection, schedule: Q01DX009 (ip), vehicle: water) was 101 % of control, the T/C (endpoint: mean survival time, dose: 100.0 mg/kg/injection, schedule: Q04DX003 (ip), vehicle: water) was 109 % of control and the T/C (endpoint: mean survival time, dose: 200.0 mg/kg/injection, schedule: Q01DX009 (ip), vehicle: water) was 109 % of control. The T/C (endpoint: mean survival time, dose: 400.0 mg/kg/injection, schedule: Q04DX003 (ip), vehicle: water) was 110 % of control.

With `C[N+](C)(C)C1CC1` the T/C [9] was 94 % of control, the T/C [10] was 98 % of control and the T/C [11] was 93 % of control. For the same molecule, the T/C [12] was 96 % of control and 102 % of control and the T/C [13] was 103 % of control.

For `O=C(O)CCCc1ccc(Cl)cc1`, the T/C [12] was 113 % of control, the T/C [14] was 105 % of control and the T/C [15] was 96 % of control.

With `NC(CNO)C(=O)O` (stereo not drawn) the T/C [14] was 101 % of control, the T/C [16] was 103 % of control and the T/C [15] was 103 % of control. For the same molecule, the T/C [17] was 97 % of control, the T/C [18] was 110 % of control and the T/C [19] was 111 % of control.

In the case of `CSc1cc(C(=O)O)nc(SC)n1`, the T/C (endpoint: mean survival time, dose: 100.0 mg/kg/injection, schedule: Q01DX Z (ip), vehicle: methylcellulose (MC)) is reported as 97 % of control.

For `O=C(COc1ccccc1)N(O)c1ccc(/C=C/c2ccccc2)cc1`, the T/C [20] was 93 % of control, the T/C [21] was 95 % of control and the T/C [22] was 88 % of control.

`O=C(C(O[N+](=O)[O-])c1ccccc1)C(O[N+](=O)[O-])c1ccccc1` (stereo not drawn) was tested, and the T/C (endpoint: mean survival time, dose: 100.0 mg/kg/injection, schedule: Q01DX001 (ip), vehicle: Klucel (hydroxypropylcellulose) (HPC)) was 95 % of control, the T/C (endpoint: mean survival time, dose: 200.0 mg/kg/injection, schedule: Q01DX001 (ip), vehicle: Klucel (hydroxypropylcellulose) (HPC)) was 95 % of control and the T/C (endpoint: mean survival time, dose: 400.0 mg/kg/injection, schedule: Q01DX001 (ip), vehicle: Klucel (hydroxypropylcellulose) (HPC)) was 93 % of control.

In the case of `CC(N)=O.CC(N)=O.Nc1ccnc(=O)[nH]1.[Cl][Pt]`, the T/C [14] is reported as 110 % of control, the T/C [16] is reported as 114 % of control and the T/C [15] is reported as 114 % of control. For the same molecule, the T/C [17] was 116 % of control, the T/C [18] was 101 % of control and the T/C [19] was 119 % of control.

For `CCC[As](=O)(O)CC(C)C`, the T/C (endpoint: mean survival time, dose: 6.25 mg/kg/injection, schedule: Q01DX001 (ip), vehicle: saline) was 102 % of control, the T/C (endpoint: mean survival time, dose: 6.25 mg/kg/injection, schedule: Q01DX009 (ip), vehicle: saline) was 119 % of control and the T/C (endpoint: mean survival time, dose: 12.5 mg/kg/injection, schedule: Q01DX001 (ip), vehicle: saline) was 98 % of control. For the same molecule, the T/C [9] was 101 % of control and 108 % of control, the T/C (endpoint: mean survival time, dose: 12.5 mg/kg/injection, schedule: Q04DX003 (ip), vehicle: saline) was 94 % of control and the T/C [23] was 101 % of control. The T/C [10] was 162 % of control, the T/C (endpoint: mean survival time, dose: 25.0 mg/kg/injection, schedule: Q04DX002 (ip), vehicle: saline) was 97 % of control and the T/C [11] was 113 % of control. For the same molecule, the T/C [24] was 104 % of control, the T/C (endpoint: mean survival time, dose: 50.0 mg/kg/injection, schedule: Q04DX002 (ip), vehicle: saline) was 103 % of control and the T/C [13] was 95 % of control.

`COC(=O)C(OC(=O)n1ccnc1)(c1ccccc1)c1ccccc1` was tested, and the T/C [25] was 112 % of control, the T/C [26] was 94 % of control and the T/C [27] was 97 % of control.

With `COC(=O)c1sc2ccccc2c1C` the T/C [20] was 104 % of control, the T/C [21] was 98 % of control and the T/C [22] was 98 % of control.

`COc1ccc2c(c1)CC/C(=C\c1cccnc1)C2=O` was tested, and the T/C (endpoint: mean survival time, dose: 100.0 mg/kg/injection, schedule: Q04DX003 (ip), vehicle: carboxymethylcellulose (CMC)) was 110 % of control, the T/C (endpoint: mean survival time, dose: 200.0 mg/kg/injection, schedule: Q04DX003 (ip), vehicle: carboxymethylcellulose (CMC)) was 96 % of control and the T/C (endpoint: mean survival time, dose: 400.0 mg/kg/injection, schedule: Q04DX003 (ip), vehicle: carboxymethylcellulose (CMC)) was 94 % of control.

In the case of `NC(=Nc1ccccc1)C(N)=Nc1ccccc1`, the T/C [25] is reported as 107 % of control, the T/C [26] is reported as 96 % of control and the T/C [27] is reported as 93 % of control.

`O=C(CCCCl)Oc1ccccc1` was tested, and the T/C (endpoint: mean survival time, dose: 100.0 mg/kg/injection, schedule: Q01DX009 (ip), vehicle: saline with Tween-80) was 103 % of control and the T/C (endpoint: mean survival time, dose: 200.0 mg/kg/injection, schedule: Q01DX009 (ip), vehicle: saline with Tween-80) was 98 % of control.

For `NNC(=O)c1cccnc1`, the T/C [9] was 94 % of control, the T/C [23] was 100 % of control and the T/C [10] was 104 % of control. The T/C [24] was 105 % of control, the T/C [12] was 98 % of control and the T/C [28] was 102 % of control and 104 % of control. The T/C [14] was 105 % of control.

For `NC(=O)NOCc1cscn1`, the T/C [28] was 95 % of control, the T/C [29] was 97 % of control and the T/C [30] was 97 % of control.

In the case of `C/C=C1\CN(C(=O)C(NC(=O)C(N)C(O)C(O)COC(N)=O)C2OC(n3cc(C(=O)O)c(=O)[nH]c3=O)C(O)C2O)C1C(=O)O` (stereo not drawn) (tested in a mixture with another compound), the T/C [28] is reported as 109 % of control, the T/C [29] is reported as 103 % of control and the T/C [30] is reported as 97 % of control.

For `Cc1cc(C)c(NC(=O)c2cccc([N+](=O)[O-])c2C(=O)O)cc1C`, the T/C [1] was 105 % of control, the T/C [3] was 96 % of control and the T/C [5] was 108 % of control.

`COC(=O)c1c(OC)ccc2c1CC1C3Nc4ccccc4C3CCN1C2` (stereo not drawn) was tested, and the T/C [2] was 94 % of control, the T/C [4] was 90 % of control and the T/C [6] was 90 % of control.

`c1ccc(CCCn2cnc3cnccc32)cc1` was tested, and the T/C (endpoint: mean survival time, dose: 5.0 mg/kg/injection, schedule: Q01DX001 (ip), vehicle: saline) was 100 % of control, the T/C (endpoint: mean survival time, dose: 10.0 mg/kg/injection, schedule: Q01DX001 (ip), vehicle: saline) was 103 % of control and the T/C (endpoint: mean survival time, dose: 20.0 mg/kg/injection, schedule: Q01DX001 (ip), vehicle: saline) was 105 % of control. For the same molecule, the T/C (endpoint: mean survival time, dose: 40.0 mg/kg/injection, schedule: Q01DX001 (ip), vehicle: saline) was 100 % of control and the T/C [28] was 96 % of control.

`Cc1ccc(S(C)(=N)=O)cc1` (stereo not drawn) was tested, and the T/C [14] was 102 % of control, the T/C [16] was 95 % of control and the T/C [15] was 100 % of control. The T/C [17] was 98 % of control, the T/C [18] was 105 % of control and the T/C [19] was 98 % of control.

In the case of `CC(=O)NC(CCc1ccc(Cl)c(Cl)c1)c1cccc(O)c(=O)c1` (stereo not drawn), the T/C (endpoint: median survival time, dose: 50.0 mg/kg/injection, schedule: Q01DX009 (ip), vehicle: Klucel (hydroxypropylcellulose) (HPC)) is reported as 118 % of control and the T/C (endpoint: median survival time, dose: 100.0 mg/kg/injection, schedule: Q01DX009 (ip), vehicle: Klucel (hydroxypropylcellulose) (HPC)) is reported as 118 % of control.

For `CSc1ccc(NC(=O)Nc2cccc(C)c2C)cc1`, the T/C [7] was 92 % of control, the T/C [8] was 95 % of control and the T/C (endpoint: mean survival time, dose: 400.0 mg/kg/injection, schedule: Q01DX009 (ip), vehicle: Klucel (hydroxypropylcellulose) (HPC)) was 103 % of control.
